Assay results as given in patent US20080009418A1, “Selective Inhibitors” (Alchemia LTD., priority 2004, published 2008).

Assays:
[1] = target: T1, Human neurokinin (NK1) (Homo sapiens, UniProt P25103); experiment: Radioligand binding, human neurokinin NK1 membranes, filtration, [125I]-Substance P; conditions: compound at 10 μM; for A8: inhibition of radioligand binding / A8: inhibition of radioligand binding, human neurokinin (NK1): [125I]-Substance P
T1 construct: purchased Perkin Elmer Biosignal
Outline: (§1)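 Membranes from cloned human receptors were incubated with compound and radioligand for 1 hour at room temperature. Bound ligand was collected on 0.3% PEI-soaked filters, washed with cold 50 mM Tris-HCl pH 7.4, and counted by scintillation. Percent inhibition was computed against DMSO totals and reference-ligand nonspecific wells.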

[2] = target: T2, Human Melanocortin (MC4) (Homo sapiens, UniProt P32245); experiment: Radioligand binding, human melanocortin MC4 membranes, FlashPlate, [125I]-NDP-αMSH; conditions: compound at 10 μM; for A4: inhibition of radioligand binding / A4: inhibition of radioligand binding, human melanocortin (MC4): [125I]-NDP-αMSH
T2 construct: purchased Perkin Elmer Biosignal
Outline: (§2)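 Cloned human receptor membranes were coated onto FlashPlate wells and incubated with radioligand and compound (added from a 0.5 mM DMSO daughter plate) for 1 hour at room temperature in the dark. Scintillation counting gave percent inhibition, with DMSO defining total and reference ligand defining non-specific binding.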

[3] = target: T3, Human neuropeptide Y (NPY-Y1) (Homo sapiens, UniProt P25929); experiment: Radioligand binding, human neuropeptide Y NPY-Y1 membranes, FlashPlate, [125I]-PYY; conditions: compound at 10 μM; for A9: inhibition of radioligand binding / A9: inhibition of radioligand binding, human neuropeptide Y (NPY-Y1): [125I]-PYY
T3 construct: purchased Perkin Elmer Biosignal
T3 sequence (P25929 1-384): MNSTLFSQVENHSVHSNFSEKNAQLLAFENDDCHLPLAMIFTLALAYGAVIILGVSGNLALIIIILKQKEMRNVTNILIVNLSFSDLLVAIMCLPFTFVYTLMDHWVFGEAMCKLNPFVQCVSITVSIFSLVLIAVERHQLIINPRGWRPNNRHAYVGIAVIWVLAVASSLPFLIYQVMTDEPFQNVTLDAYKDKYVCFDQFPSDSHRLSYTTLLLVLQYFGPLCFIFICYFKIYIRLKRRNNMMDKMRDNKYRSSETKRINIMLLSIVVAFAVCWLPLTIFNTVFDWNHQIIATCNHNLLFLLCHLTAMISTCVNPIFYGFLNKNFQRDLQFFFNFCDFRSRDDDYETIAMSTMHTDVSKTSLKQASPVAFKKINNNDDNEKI
Outline: as §2

[4] = target: T4, Human Melanocortin (MC3) (Homo sapiens, UniProt P41968); experiment: Radioligand binding, human melanocortin MC3 membranes, FlashPlate, [125I]-NDP-αMSH; conditions: compound at 10 μM; for A3: inhibition of radioligand binding / A3: inhibition of radioligand binding, human melanocortin (MC3): [125I]-NDP-αMSH
T4 construct: purchased Perkin Elmer Biosignal
Outline: as §2

[5] = target: T5, Human opioid (ORL1) (Homo sapiens, UniProt P41146); experiment: Radioligand binding, human opioid ORL1 membranes, FlashPlate, [125I]-Nociceptin; conditions: compound at 10 μM; for A10: inhibition of radioligand binding / A10: inhibition of radioligand binding, human opioid (ORL1): [125I]-Nociceptin
T5 construct: purchased Perkin Elmer Biosignal
Outline: as §2

[6] = target: T6, Mouse urotensin (mUR2) (Mus musculus, UniProt Q8VIH9); experiment: Radioligand binding, mouse urotensin mUR2 membranes, FlashPlate, [125I]-Urotensin II; conditions: compound at 10 μM; for A11: inhibition of radioligand binding / A11: inhibition of radioligand binding, mouse urotensin (mUR2): [125I]-Urotensin II
T6 construct: purchased Perkin Elmer Biosignal
T6 sequence (Q8VIH9 1-385): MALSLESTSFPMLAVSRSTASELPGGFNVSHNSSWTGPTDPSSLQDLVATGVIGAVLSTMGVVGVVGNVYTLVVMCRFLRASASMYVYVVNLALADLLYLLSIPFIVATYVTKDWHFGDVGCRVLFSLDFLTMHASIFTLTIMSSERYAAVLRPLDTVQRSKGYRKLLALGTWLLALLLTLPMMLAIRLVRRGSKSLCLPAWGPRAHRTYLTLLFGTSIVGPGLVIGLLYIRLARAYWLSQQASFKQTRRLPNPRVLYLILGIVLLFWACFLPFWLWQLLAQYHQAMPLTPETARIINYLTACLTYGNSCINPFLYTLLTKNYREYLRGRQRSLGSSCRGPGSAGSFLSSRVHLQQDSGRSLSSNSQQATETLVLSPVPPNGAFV
Outline: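 Cloned mouse urotensin (mUR2) receptor membranes from Perkin Elmer Biosignal were immobilized in FlashPlate microplates using a proprietary coating. Each well got 19.5 μl buffer, then 0.5 μl of DMSO, reference ligand, or compound. Adding 5 μl of [125I]-Urotensin II, diluted to 5× final concentration in binding buffer, started binding. Plates were sealed with TopSeal-A and incubated 1 hour at room temperature in the dark. Wells were counted for 30 seconds each on a TopCount after a 60-second delay, and percentage inhibition was calculated.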

[7] = target: T7, Human κ-Opioid (KOP) (Homo sapiens, UniProt P41145); experiment: Radioligand binding, human κ-opioid (KOP) membranes, filtration, [3H]-Diprenorphine; conditions: compound at 10 μM; for A2: inhibition of radioligand binding / A2: inhibition of radioligand binding, human κ-opioid (KOP): [3H]-Diprenorphine
T7 construct: purchased Perkin Elmer Biosignal
Outline: as §1

[8] = target: T8, Human δ-opioid (DOP) (Homo sapiens, UniProt P41143); experiment: Radioligand binding, human δ-opioid (DOP) membranes, FlashPlate, [3H]-Bremazocine; conditions: compound at 10 μM; for A1: inhibition of radioligand binding / A1: inhibition of radioligand binding, human δ-opioid (DOP): [3H]-Bremazocine
T8 construct: purchased Perkin Elmer Biosignal
Outline: as §2

[9] = target: T9, Human melanocortin (MC5) (Homo sapiens, UniProt P33032); experiment: Radioligand binding, human melanocortin MC5 membranes, FlashPlate, [125I]-NDP-αMSH; conditions: compound at 10 μM; for A5: inhibition of radioligand binding / A5: inhibition of radioligand binding, human melanocortin (MC5): [125I]-NDP-αMSH
T9 construct: purchased Perkin Elmer Biosignal
Outline: as §2

[10] = target: T10, Human melanin-concentrating hormone (MCH1) (Homo sapiens, UniProt Q99705); experiment: Radioligand binding, human melanin-concentrating hormone MCH1 membranes, FlashPlate, [125I]-S36057; conditions: compound at 10 μM; for A6: inhibition of radioligand binding, human melanin-concentrating hormone (MCH1): [125I]-S36057
T10 construct: purchased Perkin Elmer Biosignal
Outline: as §2

[11] = target: T11, Human μ-opioid (MOP) (Homo sapiens, UniProt P35372); experiment: Radioligand binding, human μ-opioid (MOP) membranes, FlashPlate, [3H]-Naloxone; conditions: compound at 10 μM; for A7: inhibition of radioligand binding / A7: inhibition of radioligand binding, human μ-opioid (MOP): [3H]-Naloxone
T11 construct: purchased Perkin Elmer Biosignal
Outline: as §2

T11 sequence (P35372 whole entry): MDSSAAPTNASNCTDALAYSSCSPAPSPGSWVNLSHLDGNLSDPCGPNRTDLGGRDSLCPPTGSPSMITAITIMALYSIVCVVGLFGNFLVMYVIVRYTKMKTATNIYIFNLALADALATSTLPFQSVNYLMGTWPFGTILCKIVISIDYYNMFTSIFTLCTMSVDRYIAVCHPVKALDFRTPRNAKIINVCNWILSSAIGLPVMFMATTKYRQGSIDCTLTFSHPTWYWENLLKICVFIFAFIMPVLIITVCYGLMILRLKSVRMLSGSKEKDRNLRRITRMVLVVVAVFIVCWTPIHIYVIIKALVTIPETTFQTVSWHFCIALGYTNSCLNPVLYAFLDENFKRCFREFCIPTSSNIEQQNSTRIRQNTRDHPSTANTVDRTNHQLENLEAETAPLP
T7 sequence (P41145 whole entry): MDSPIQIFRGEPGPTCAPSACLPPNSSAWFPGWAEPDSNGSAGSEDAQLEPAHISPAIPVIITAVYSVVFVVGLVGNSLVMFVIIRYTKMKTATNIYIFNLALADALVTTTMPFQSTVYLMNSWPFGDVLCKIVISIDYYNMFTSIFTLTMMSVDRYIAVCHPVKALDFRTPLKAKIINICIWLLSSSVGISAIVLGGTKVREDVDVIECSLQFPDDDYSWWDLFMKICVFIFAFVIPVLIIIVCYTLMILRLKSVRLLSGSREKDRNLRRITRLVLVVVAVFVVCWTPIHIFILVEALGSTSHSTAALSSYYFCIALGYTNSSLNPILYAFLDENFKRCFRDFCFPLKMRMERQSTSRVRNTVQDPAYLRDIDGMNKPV
T2 sequence (P32245 whole entry): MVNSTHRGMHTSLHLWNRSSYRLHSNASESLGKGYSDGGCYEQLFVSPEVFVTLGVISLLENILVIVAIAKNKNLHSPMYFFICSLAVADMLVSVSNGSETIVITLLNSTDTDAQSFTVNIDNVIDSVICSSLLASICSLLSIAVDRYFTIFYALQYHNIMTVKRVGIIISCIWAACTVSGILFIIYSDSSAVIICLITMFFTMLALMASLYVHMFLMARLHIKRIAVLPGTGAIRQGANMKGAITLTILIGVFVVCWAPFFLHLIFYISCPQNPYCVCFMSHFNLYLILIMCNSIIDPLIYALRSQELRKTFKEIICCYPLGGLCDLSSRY
T1 sequence (P25103 whole entry): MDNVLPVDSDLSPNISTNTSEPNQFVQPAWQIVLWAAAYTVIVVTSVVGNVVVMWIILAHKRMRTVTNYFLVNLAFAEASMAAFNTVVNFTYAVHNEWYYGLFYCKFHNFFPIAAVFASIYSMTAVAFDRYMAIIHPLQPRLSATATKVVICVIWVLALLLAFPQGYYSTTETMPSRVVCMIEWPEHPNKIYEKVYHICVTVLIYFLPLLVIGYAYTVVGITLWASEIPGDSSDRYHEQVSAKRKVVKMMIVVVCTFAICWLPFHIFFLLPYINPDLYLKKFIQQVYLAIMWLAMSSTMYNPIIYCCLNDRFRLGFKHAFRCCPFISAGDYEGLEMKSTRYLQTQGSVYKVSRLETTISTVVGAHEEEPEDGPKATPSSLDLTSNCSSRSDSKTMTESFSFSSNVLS
T5 sequence (P41146 whole entry): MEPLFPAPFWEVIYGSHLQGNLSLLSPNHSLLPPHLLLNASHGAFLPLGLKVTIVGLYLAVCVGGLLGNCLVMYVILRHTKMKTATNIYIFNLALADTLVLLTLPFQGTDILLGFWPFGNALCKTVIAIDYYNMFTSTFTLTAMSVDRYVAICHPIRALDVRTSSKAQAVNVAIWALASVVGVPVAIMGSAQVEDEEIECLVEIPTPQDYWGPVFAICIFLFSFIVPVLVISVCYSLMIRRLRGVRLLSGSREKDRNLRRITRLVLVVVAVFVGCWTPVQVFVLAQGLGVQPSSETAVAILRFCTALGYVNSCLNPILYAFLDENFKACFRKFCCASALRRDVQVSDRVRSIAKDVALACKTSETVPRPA
T4 sequence (P41968 whole entry): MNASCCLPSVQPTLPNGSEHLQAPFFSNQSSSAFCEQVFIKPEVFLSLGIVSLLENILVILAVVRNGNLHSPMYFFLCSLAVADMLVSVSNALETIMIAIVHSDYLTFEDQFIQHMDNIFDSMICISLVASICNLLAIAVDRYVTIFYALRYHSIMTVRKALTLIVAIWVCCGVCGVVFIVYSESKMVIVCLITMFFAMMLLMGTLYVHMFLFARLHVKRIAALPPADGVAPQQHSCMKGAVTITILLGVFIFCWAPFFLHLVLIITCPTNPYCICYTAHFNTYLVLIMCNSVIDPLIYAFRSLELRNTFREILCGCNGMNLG
T10 sequence (Q99705 whole entry): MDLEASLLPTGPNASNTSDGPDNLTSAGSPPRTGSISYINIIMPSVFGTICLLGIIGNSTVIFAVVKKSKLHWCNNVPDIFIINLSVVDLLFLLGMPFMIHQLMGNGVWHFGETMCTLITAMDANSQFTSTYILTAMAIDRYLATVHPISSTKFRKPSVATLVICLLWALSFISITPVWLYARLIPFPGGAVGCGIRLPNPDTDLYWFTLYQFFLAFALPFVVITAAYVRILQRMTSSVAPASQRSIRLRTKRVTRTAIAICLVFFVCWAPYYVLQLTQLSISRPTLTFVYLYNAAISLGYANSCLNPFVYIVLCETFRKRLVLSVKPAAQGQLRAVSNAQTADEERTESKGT
T9 sequence (P33032 whole entry): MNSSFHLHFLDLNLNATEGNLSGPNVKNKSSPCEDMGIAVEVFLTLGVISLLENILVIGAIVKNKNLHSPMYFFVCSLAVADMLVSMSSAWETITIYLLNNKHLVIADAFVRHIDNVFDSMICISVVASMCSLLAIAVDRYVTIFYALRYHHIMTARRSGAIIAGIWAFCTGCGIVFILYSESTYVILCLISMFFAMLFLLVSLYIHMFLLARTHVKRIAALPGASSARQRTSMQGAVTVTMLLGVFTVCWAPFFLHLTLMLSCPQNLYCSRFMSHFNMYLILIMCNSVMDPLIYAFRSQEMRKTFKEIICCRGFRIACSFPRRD
T8 sequence (P41143 whole entry): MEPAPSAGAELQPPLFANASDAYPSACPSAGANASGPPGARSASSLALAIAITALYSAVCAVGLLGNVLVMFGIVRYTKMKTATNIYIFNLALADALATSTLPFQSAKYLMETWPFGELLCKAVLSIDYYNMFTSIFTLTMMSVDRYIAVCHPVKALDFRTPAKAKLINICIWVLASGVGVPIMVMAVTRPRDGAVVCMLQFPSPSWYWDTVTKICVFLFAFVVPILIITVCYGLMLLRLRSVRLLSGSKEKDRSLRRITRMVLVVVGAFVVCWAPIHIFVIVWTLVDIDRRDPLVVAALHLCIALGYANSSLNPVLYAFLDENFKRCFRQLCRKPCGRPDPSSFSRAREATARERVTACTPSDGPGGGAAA

Structure (SMILES): NCCC(=O)N[C@H]1C(OCc2ccc3ccccc3c2)O[C@H](COCc2ccc(Cl)cc2)[C@@H](O)[C@@H]1OCc1ccc(Cl)cc1 (stereo partly shown) [compound 441]
- A8: inhibition of radioligand binding ([1]; human NK1 membranes): + (“+” indicates greater than 50% inhibition at 10 μM)
- A4: inhibition of radioligand binding ([2]; human MC4 membranes, 10 µM): + (“+” indicates greater than 50% inhibition at 10 μM)
- A9: inhibition of radioligand binding ([3]; human NPY-Y1 membranes): − (“−” indicates less than 50% inhibition at 10 μM)
- A3: inhibition of radioligand binding ([4]; human MC3 membranes, 10 µM): + (“+” indicates greater than 50% inhibition at 10 μM)
- A10: inhibition of radioligand binding ([5]; human ORL1 membranes): − (“−” indicates less than 50% inhibition at 10 μM)
- A11: inhibition of radioligand binding ([6]; mouse mUR2 membranes): − (“−” indicates less than 50% inhibition at 10 μM)
- A2: inhibition of radioligand binding ([7]; human KOP membranes): − (“−” indicates less than 50% inhibition at 10 μM)
- A1: inhibition of radioligand binding ([8]; human DOP membranes): − (“−” indicates less than 50% inhibition at 10 μM)
- A5: inhibition of radioligand binding ([9]; human MC5 membranes): + (“+” indicates greater than 50% inhibition at 10 μM)
- A6: inhibition of radioligand binding ([10]; [125I]-S36057, human MCH1 membranes): + (“+” indicates greater than 50% inhibition at 10 μM)
- A7: inhibition of radioligand binding ([11]; human MOP membranes): − (“−” indicates less than 50% inhibition at 10 μM)

Structure (SMILES): COC[C@H]1OC(OCCc2ccccc2)[C@H](NC(=O)CCCNC(=N)N)[C@@H](OCc2ccc(Cl)cc2)[C@@H]1O (stereo partly shown) [compound 50]
- A8 radioligand binding inhibition ([1]; human neurokinin NK1 membranes): + (“+” indicates greater than 50% inhibition at 10 μM)
- A4 radioligand binding inhibition ([2]; human melanocortin MC4 membranes): − (“−” indicates less than 50% inhibition at 10 μM)
- A9 radioligand binding inhibition ([3]; human NPY-Y1 membranes): − (“−” indicates less than 50% inhibition at 10 μM)
- A3 radioligand binding inhibition ([4]; human melanocortin MC3 membranes): − (“−” indicates less than 50% inhibition at 10 μM)
- A10 radioligand binding inhibition ([5]; human ORL1 membranes): − (“−” indicates less than 50% inhibition at 10 μM)
- A11 radioligand binding inhibition ([6]; mouse urotensin mUR2 membranes): − (“−” indicates less than 50% inhibition at 10 μM)
- A2 radioligand binding inhibition ([7]; human κ-opioid (KOP) membranes): − (“−” indicates less than 50% inhibition at 10 μM)
- A1 radioligand binding inhibition ([8]; human δ-opioid (DOP) membranes): − (“−” indicates less than 50% inhibition at 10 μM)
- A5 radioligand binding inhibition ([9]; human melanocortin MC5 membranes): − (“−” indicates less than 50% inhibition at 10 μM)
- A6 radioligand binding inhibition ([10]; human MCH1 membranes): + (“+” indicates greater than 50% inhibition at 10 μM)
- A7 radioligand binding inhibition ([11]; human μ-opioid (MOP) membranes): − (“−” indicates less than 50% inhibition at 10 μM)

Structure (SMILES): N=C(N)NCC(=O)NC1C(OCc2ccc(Cl)cc2)OC(COCc2ccc3ccccc3c2)C(O)C1OCc1ccc(Cl)cc1 (single isomer, unassigned) [compound 507]
- A8: inhibition of radioligand binding, human neurokinin (NK1) [1]: + (“+” indicates greater than 50% inhibition at 10 μM)
- A4: inhibition of radioligand binding, human melanocortin (MC4) [2]: + (“+” indicates greater than 50% inhibition at 10 μM)
- A9: inhibition of radioligand binding, human neuropeptide Y (NPY-Y1) [3]: − (“−” indicates less than 50% inhibition at 10 μM)
- A3: inhibition of radioligand binding, human melanocortin (MC3) ([4]; 10 µM): − (“−” indicates less than 50% inhibition at 10 μM)
- A10: inhibition of radioligand binding, human opioid (ORL1) [5]: + (“+” indicates greater than 50% inhibition at 10 μM)
- A11: inhibition of radioligand binding, mouse urotensin (mUR2) [6]: − (“−” indicates less than 50% inhibition at 10 μM)
- A2: inhibition of radioligand binding, human κ-opioid (KOP) ([7]; 10 µM): − (“−” indicates less than 50% inhibition at 10 μM)
- A1: inhibition of radioligand binding, human δ-opioid (DOP) [8]: − (“−” indicates less than 50% inhibition at 10 μM)
- A5: inhibition of radioligand binding, human melanocortin (MC5) [9]: + (“+” indicates greater than 50% inhibition at 10 μM)
- A6: inhibition of radioligand binding, human melanin-concentrating hormone (MCH1) [10]: + (“+” indicates greater than 50% inhibition at 10 μM)
- A7: inhibition of radioligand binding, human μ-opioid (MOP) [11]: − (“−” indicates less than 50% inhibition at 10 μM)

Structure (SMILES): COCC1OC(OCCc2ccccc2)C(NC(=O)CN)C(OCc2ccccc2)C1O (stereo not shown) [compound 214]
- A8: inhibition of radioligand binding ([1]; filtration): + (“+” indicates greater than 50% inhibition at 10 μM)
- A4: inhibition of radioligand binding ([2]; FlashPlate): − (“−” indicates less than 50% inhibition at 10 μM)
- A9: inhibition of radioligand binding ([3]; FlashPlate): − (“−” indicates less than 50% inhibition at 10 μM)
- A3: inhibition of radioligand binding ([4]; FlashPlate): − (“−” indicates less than 50% inhibition at 10 μM)
- A10: inhibition of radioligand binding ([5]; FlashPlate): − (“−” indicates less than 50% inhibition at 10 μM)
- A11: inhibition of radioligand binding ([6]; FlashPlate): − (“−” indicates less than 50% inhibition at 10 μM)
- A2: inhibition of radioligand binding ([7]; filtration): − (“−” indicates less than 50% inhibition at 10 μM)
- A1: inhibition of radioligand binding ([8]; FlashPlate): − (“−” indicates less than 50% inhibition at 10 μM)
- A5: inhibition of radioligand binding ([9]; FlashPlate): − (“−” indicates less than 50% inhibition at 10 μM)
- A6: inhibition of radioligand binding ([10]; [125I]-S36057, FlashPlate): − (“−” indicates less than 50% inhibition at 10 μM)
- A7: inhibition of radioligand binding ([11]; FlashPlate): − (“−” indicates less than 50% inhibition at 10 μM)

Structure (SMILES): N=C(N)NCC(=O)N[C@H]1C(OCc2ccc(Cl)cc2)O[C@H](COCc2ccccc2)[C@@H](O)[C@@H]1OCc1ccc(-c2ccccc2)cc1 (stereo partly shown) [compound 518]
- A8: inhibition of radioligand binding, human neurokinin (NK1) [1]: + (“+” indicates greater than 50% inhibition at 10 μM)
- A4: inhibition of radioligand binding, human melanocortin (MC4) ([2]; 10 µM): − (“−” indicates less than 50% inhibition at 10 μM)
- A9: inhibition of radioligand binding, human neuropeptide Y (NPY-Y1) [3]: − (“−” indicates less than 50% inhibition at 10 μM)
- A3: inhibition of radioligand binding, human melanocortin (MC3) ([4]; 10 µM): − (“−” indicates less than 50% inhibition at 10 μM)
- A10: inhibition of radioligand binding, human opioid (ORL1) [5]: − (“−” indicates less than 50% inhibition at 10 μM)
- A11: inhibition of radioligand binding, mouse urotensin (mUR2) [6]: − (“−” indicates less than 50% inhibition at 10 μM)
- A2: inhibition of radioligand binding, human κ-opioid (KOP) [7]: − (“−” indicates less than 50% inhibition at 10 μM)
- A1: inhibition of radioligand binding, human δ-opioid (DOP) [8]: − (“−” indicates less than 50% inhibition at 10 μM)
- A5: inhibition of radioligand binding, human melanocortin (MC5) ([9]; 10 µM): − (“−” indicates less than 50% inhibition at 10 μM)
- A6: inhibition of radioligand binding, human melanin-concentrating hormone (MCH1) ([10]; 10 µM): − (“−” indicates less than 50% inhibition at 10 μM)
- A7: inhibition of radioligand binding, human μ-opioid (MOP) [11]: − (“−” indicates less than 50% inhibition at 10 μM)
